In ChEMBL document CHEMBL1152560, “Substituted 2-arylbenzothiazoles as kinase inhibitors: hit-to-lead optimization” (Bioorg Med Chem, 2009):

What was measured:
[1] = target: T1, Aurora kinase A (Homo sapiens) (UniProt O14965); assay: Residual activity of Aurora-A at 0.1 uM by microplate scintillation counting
T1 sequence (whole entry): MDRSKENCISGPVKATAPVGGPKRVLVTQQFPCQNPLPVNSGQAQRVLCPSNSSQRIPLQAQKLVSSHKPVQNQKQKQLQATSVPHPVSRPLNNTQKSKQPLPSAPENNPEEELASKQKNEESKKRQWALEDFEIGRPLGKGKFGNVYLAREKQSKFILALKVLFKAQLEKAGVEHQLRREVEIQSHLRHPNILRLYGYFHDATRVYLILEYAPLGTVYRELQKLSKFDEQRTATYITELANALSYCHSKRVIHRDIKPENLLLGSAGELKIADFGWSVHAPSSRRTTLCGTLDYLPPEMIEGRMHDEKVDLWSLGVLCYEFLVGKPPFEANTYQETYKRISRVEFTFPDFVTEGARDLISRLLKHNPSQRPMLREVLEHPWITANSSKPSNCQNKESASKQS

[2] = target: Serine/threonine-protein kinase WNK3 (Homo sapiens) (UniProt Q9BYP7); assay: Residual activity of WNK3 at 1 uM by microplate scintillation counting
Aurora kinase B = Aurora kinase B (Homo sapiens, UniProt Q96GD4); assay: Residual activity of Aurora-B at 0.1 uM by microplate scintillation counting
Sequence of Aurora kinase B (Q96GD4 whole entry): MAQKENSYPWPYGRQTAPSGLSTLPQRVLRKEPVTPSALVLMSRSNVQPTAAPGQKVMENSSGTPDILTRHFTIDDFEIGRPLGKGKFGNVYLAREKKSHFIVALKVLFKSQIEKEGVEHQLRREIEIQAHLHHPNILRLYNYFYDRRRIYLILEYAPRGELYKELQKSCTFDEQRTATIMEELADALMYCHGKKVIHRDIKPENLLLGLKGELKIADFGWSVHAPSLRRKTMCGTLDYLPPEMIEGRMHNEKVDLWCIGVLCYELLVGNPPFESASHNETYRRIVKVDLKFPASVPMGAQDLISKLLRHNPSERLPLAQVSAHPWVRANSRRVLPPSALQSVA

[3] = target: T2, Interleukin-1 receptor-associated kinase 4 (Homo sapiens) (UniProt Q9NWZ3); assay: Residual activity of IRAK4 at 10 uM by microplate scintillation counting
T2 sequence (whole entry): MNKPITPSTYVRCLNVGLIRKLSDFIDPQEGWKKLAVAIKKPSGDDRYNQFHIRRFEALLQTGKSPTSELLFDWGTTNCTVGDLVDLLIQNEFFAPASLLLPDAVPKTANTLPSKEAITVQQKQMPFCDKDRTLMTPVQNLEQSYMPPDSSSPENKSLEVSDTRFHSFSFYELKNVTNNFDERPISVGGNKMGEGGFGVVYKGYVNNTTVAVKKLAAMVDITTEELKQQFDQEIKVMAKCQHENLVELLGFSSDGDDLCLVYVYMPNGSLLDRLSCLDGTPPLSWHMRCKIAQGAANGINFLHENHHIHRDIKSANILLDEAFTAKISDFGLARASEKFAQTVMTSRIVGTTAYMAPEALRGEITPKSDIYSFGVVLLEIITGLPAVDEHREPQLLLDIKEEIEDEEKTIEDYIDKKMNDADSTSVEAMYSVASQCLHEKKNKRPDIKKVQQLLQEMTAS

[4] = target: Glycogen synthase kinase-3 beta (Homo sapiens) (UniProt P49841); assay: Residual activity of GSK3-beta at 0.1 uM by microplate scintillation counting
Sequence of Glycogen synthase kinase-3 beta (Homo sapiens) (P49841 whole entry, looked up): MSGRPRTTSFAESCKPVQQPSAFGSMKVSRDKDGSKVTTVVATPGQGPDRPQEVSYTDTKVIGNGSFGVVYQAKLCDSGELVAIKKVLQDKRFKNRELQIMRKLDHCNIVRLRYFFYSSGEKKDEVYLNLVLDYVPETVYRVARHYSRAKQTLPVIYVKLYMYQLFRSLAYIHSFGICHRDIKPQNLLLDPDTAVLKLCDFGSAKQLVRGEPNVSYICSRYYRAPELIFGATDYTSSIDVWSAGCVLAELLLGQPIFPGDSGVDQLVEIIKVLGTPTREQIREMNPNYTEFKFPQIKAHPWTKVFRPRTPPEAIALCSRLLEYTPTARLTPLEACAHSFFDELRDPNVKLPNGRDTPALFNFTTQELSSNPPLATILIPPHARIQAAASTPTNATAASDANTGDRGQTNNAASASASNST

[5] = target: Mitogen-activated protein kinase kinase kinase 8 (Homo sapiens) (UniProt P41279); assay: Residual activity of COT at 0.1 uM by microplate scintillation counting
Sequence of Mitogen-activated protein kinase kinase kinase 8 (Homo sapiens) (P41279 whole entry, canonical isoform): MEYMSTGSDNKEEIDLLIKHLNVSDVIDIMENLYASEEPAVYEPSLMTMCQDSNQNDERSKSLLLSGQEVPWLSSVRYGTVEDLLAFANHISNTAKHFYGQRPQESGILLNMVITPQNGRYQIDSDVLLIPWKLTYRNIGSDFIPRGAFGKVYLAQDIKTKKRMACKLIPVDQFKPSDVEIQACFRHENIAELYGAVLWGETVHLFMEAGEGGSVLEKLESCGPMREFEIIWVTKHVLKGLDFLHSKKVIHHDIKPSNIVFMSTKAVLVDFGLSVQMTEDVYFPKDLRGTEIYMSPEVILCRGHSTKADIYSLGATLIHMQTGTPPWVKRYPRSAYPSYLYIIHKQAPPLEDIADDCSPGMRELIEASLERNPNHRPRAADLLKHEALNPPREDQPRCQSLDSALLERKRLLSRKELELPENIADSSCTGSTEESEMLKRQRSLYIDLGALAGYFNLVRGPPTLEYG

[6] = target: Casein kinase I isoform delta (Homo sapiens) (UniProt P48730); assay: Residual activity of CK1delta at 0.1 uM by microplate scintillation counting
Sequence of Casein kinase I isoform delta (Homo sapiens) (P48730 whole entry, looked up, canonical isoform): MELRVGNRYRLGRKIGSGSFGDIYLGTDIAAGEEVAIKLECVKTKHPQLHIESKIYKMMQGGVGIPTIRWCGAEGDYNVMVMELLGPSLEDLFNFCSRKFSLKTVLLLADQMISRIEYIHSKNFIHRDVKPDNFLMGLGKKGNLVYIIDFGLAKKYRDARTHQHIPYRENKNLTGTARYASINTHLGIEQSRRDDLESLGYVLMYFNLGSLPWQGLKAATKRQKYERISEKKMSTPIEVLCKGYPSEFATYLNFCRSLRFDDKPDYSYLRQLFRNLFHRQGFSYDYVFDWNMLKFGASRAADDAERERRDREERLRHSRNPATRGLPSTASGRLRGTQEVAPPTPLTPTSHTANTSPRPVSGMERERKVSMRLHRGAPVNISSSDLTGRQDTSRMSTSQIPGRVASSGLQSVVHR

[7] = target: Insulin receptor-related protein (Homo sapiens) (UniProt P14616); assay: Residual activity of INSRR at 0.1 uM by microplate scintillation counting
[8] = target: Tyrosine-protein kinase Fyn (Homo sapiens) (UniProt P06241); assay: Residual activity of FYN at 0.1 uM by microplate scintillation counting
Sequence of Tyrosine-protein kinase Fyn (Homo sapiens) (P06241 2-537 limits assumed): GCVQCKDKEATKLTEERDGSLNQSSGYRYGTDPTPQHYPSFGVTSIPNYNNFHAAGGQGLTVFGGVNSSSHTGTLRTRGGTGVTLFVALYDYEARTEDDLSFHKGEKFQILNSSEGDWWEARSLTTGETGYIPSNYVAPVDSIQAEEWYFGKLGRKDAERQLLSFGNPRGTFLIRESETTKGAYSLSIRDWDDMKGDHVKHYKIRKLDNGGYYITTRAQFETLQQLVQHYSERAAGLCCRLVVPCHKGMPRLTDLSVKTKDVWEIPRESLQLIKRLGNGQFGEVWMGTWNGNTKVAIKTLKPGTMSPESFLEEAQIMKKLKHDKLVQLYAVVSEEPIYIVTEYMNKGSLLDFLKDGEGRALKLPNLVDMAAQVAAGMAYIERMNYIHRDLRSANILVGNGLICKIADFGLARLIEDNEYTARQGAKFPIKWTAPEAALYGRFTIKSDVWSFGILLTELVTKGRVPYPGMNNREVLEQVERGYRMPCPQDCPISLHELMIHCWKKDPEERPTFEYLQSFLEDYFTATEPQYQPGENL

[9] = target: Tyrosine-protein kinase BTK (Homo sapiens) (UniProt Q06187); assay: Residual activity of BTK at 10 uM by microplate scintillation counting
Sequence of Tyrosine-protein kinase BTK (Homo sapiens) (Q06187 whole entry): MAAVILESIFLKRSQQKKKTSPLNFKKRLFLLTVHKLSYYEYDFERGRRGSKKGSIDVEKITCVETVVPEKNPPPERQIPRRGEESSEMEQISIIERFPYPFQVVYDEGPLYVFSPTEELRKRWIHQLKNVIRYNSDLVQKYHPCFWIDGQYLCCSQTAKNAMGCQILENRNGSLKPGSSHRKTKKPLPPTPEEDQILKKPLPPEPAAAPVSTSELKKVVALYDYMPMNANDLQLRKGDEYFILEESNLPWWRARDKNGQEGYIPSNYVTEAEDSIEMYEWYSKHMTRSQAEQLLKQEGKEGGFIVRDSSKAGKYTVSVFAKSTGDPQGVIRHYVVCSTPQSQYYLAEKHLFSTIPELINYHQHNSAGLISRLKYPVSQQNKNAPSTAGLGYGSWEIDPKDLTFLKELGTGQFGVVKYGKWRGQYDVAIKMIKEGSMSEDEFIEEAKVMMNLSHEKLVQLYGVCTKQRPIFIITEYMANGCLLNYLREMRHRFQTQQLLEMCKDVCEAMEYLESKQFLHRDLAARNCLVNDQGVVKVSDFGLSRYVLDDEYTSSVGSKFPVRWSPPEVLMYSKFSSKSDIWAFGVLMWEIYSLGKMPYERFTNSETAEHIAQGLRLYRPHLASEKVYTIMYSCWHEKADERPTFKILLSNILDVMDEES

[10] = target: T3, Ephrin type-B receptor 1 (Homo sapiens) (UniProt P54762); assay: Residual activity of EPHB1 at 0.1 uM by microplate scintillation counting
T3 sequence (whole entry): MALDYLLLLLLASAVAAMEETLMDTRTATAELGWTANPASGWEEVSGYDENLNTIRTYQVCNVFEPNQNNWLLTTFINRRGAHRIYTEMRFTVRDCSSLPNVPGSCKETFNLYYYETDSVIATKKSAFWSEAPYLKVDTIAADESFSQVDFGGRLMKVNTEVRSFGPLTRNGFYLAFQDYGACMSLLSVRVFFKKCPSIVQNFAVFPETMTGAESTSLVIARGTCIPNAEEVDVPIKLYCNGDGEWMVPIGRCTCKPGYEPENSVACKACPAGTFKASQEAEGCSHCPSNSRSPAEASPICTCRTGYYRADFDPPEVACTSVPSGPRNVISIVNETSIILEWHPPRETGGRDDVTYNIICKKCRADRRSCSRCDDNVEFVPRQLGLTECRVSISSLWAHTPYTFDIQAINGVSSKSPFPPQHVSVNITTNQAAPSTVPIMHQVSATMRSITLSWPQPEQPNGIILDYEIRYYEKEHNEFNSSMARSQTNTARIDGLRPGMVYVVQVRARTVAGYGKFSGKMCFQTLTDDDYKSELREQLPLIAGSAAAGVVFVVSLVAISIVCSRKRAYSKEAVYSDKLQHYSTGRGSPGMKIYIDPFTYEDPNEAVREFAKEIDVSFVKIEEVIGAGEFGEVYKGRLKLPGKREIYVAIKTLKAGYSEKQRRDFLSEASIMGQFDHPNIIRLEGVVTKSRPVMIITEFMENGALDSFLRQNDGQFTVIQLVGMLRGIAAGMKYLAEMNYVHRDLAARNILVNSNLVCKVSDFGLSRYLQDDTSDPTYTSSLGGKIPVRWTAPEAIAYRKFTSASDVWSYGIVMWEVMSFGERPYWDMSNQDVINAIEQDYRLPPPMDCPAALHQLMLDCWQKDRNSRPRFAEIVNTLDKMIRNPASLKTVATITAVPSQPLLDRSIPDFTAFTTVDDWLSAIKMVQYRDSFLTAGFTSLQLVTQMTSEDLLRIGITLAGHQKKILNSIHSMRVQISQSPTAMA

[11] = target: MAP/microtubule affinity-regulating kinase 3 (Homo sapiens) (UniProt P27448); assay: Residual activity of MARK3 at 10 uM by microplate scintillation counting
Sequence of MAP/microtubule affinity-regulating kinase 3 (Homo sapiens) (P27448 whole entry, looked up): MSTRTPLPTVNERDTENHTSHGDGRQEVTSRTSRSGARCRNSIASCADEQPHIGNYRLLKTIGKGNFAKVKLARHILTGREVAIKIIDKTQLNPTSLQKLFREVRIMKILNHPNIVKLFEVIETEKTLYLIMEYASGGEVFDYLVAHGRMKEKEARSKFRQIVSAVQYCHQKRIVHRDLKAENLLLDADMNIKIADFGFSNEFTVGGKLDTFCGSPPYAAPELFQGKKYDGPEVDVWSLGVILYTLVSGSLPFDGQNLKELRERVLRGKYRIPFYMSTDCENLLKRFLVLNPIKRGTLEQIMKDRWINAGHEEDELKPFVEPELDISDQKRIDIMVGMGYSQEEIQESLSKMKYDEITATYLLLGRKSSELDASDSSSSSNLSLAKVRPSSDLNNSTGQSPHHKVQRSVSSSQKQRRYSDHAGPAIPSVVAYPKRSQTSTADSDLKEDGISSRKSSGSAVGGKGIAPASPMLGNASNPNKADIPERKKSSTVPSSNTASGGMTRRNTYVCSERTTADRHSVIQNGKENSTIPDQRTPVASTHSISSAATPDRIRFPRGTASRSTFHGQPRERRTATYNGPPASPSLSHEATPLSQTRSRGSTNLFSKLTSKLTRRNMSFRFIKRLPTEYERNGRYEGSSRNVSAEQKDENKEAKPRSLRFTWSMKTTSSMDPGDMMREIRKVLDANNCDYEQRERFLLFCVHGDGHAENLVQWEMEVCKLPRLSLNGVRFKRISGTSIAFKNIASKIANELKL

[12] = target: Insulin receptor-related protein (Homo sapiens) (UniProt P14616); assay: Residual activity of INSRR at 1 uM by microplate scintillation counting
[13] = target: Homeodomain-interacting protein kinase 1 (Homo sapiens) (UniProt Q86Z02); assay: Residual activity of HIPK1 at 10 uM by microplate scintillation counting
[14] = target: Mitogen-activated protein kinase kinase kinase 8 (Homo sapiens) (UniProt P41279); assay: Residual activity of COT at 1 uM by microplate scintillation counting
[15] = target: Tyrosine-protein kinase Lck (Homo sapiens) (UniProt P06239); assay: Residual activity of LCK at 1 uM by microplate scintillation counting
Sequence of Tyrosine-protein kinase Lck (Homo sapiens) (P06239 2-509 limits assumed): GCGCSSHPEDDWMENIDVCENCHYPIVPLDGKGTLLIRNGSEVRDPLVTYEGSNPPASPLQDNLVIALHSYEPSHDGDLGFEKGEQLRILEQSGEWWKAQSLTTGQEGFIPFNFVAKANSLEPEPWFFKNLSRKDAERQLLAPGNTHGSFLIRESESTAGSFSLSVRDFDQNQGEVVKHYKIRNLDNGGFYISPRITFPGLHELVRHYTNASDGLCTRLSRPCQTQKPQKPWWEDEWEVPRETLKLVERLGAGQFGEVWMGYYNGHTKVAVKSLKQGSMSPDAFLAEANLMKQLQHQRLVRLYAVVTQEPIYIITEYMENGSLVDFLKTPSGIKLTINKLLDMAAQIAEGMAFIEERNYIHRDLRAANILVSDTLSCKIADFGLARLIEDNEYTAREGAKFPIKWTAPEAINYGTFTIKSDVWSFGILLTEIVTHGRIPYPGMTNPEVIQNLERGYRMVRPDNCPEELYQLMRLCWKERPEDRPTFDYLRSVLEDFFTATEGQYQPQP

Row | residual activity [1] | residual activity [2] | residual activity (Aurora kinase B) | residual activity [3] | residual activity [4] | residual activity [5] | residual activity [6] | residual activity [7] | residual activity [8] | residual activity [9] | residual activity [10] | residual activity [11] | residual activity [12] | residual activity [13] | residual activity [14] | residual activity [15] | Structure (SMILES)
1 | 68% | 76% | 48% | 26% | 98% | 73% | 95% | 97% | 105% | 53% | 99% | 108% | 96% | 103% | 73% | 64% | COc1cc2c(Oc3ccc(-c4nc5ccccc5s4)cc3)ncnc2cc1OCCCN1CCCC1
2 | 52% | 64% | 40% | 36% | 96% | 101% | 94% | 96% | 101% | 40% | 118% | 107% | 105% | 132% | -18% | 46% | COc1cc2c(Oc3ccc(-c4nc5ccccc5s4)cc3)ncnc2cc1OCCCN1CCN(C)CC1
3 | 65% | 69% | 45% | 34% | 86% | 78% | 98% | 116% | 98% | 6% | 123% | 104% | 73% | 142% | 77% | 50% | COc1cc2c(Oc3ccc(-c4nc5ccccc5s4)cc3F)ncnc2cc1OCCCN1CCN(C)CC1
